{"source": "patent US6165982A", "about": "“Use of sericin as antioxidants and tyrosinase inhibitors” (Seiren Co., Ltd., priority 1996, dated 2000)", "test_system": "rat brain homogenate", "assay": "Inhibitory test of lipid peroxide in rat brain homogenate (TBARS, TBA method)", "format": "biochemical", "conditions": "for Inhibitory rate on an increase in lipid peroxide: 37° C., 2 hours, TBARS", "method": "To 1 g of the rat brain stored under refrigeration was added 9 ml of 0.075M phosphate buffer (pH 7.5) and the mixture was homogenated under ice-cooling (hereinafter referred to as homogenate). To 0.5 ml of the homogenate obtained above was added 3.5 ml each of 0.075M phosphate buffers containing Sericin L and Sericin H (pH 7.5), respectively. Incubation was continued at 37° C. for 2 hours. At the end of this time, the respective final concentrations of sericin were made to 0.02~0.5%. Immediately before the isolation and after the incubation for 2 hours, 0.5 ml each of the samples was recovered and then TBARS (thiobarbituric acid reactive substance), an indicator of lipid peroxide level, was determined according to the TBA (thiobarbituric acid) method. Antioxidizing ability of sericin was calculated from the TBARS amount obtained when no sericin was added and the TBARS amount obtained when sericin was added according to the following equation 1 and expressed in terms of an inhibitory rate on an increase in lipid peroxide by incubation. In all cases of this Test Example and the following Test Examples 2~5, tests were repeated three times and the results were shown with an average value of the numerical values thus obtained. Inhibitory rate (%)=(1-A/B)×100 Equation 1 A: Increased TBARS amount obtained when a lipid peroxide inhibitory agent (an antioxidant) was added B: Increased TBARS amount obtained when no lipid peroxide inhibitory agent (an antioxidant) was added To 0.5 ml of a sample were added 2.5 ml of a 8% trichloroacetic acid solution and 2.0 ml of a 0.67% thiobarbituric acid solution and the resulting mixture was thoroughly mixed and then heated in a boiling water bath for 15 minutes. Thereafter, the mixture was centrifuged at 2000× g for 10 minutes and the supernatant was measured for absorbance at 535 nm to determine a TBARS amount. 1,1,3,3-Tetraethoxypropane was used as a standard. To 0.5 ml of the homogenate obtained above was added 3.5 ml each of 0.075M phosphate buffers (pH 7.5) containing Sericin L, ascorbic acid (vitamin C) and bovine serum albumin, respectively. Incubation was continued at 37° C. for 2 hours. The final concentrations of Sericin L, ascorbic acid and albumin were made to 0.01%~1.0%. After incubation, a TBARS amount was determined according to the TBA method, similarly to Test Example 1 and inhibitory rates on an increase in lipid peroxide were determined, respectively."}
{"smiles": "O=C1O[C@H]([C@@H](O)CO)C(O)=C1O", "note": "[Ascorbic acid, ascorbic acid]", "values": [{"measurement": "Inhibitory rate on an increase in lipid peroxide", "setting": "final concentration 0.01%", "result": -39, "unit": "%"}, {"measurement": "Inhibitory rate on an increase in lipid peroxide", "setting": "final concentration 0.05%", "result": 39, "unit": "%"}, {"measurement": "Inhibitory rate on an increase in lipid peroxide", "setting": "final concentration 0.1%", "result": 87, "unit": "%"}, {"measurement": "Inhibitory rate on an increase in lipid peroxide", "setting": "final concentration 0.5%", "result": 97, "unit": "%"}, {"measurement": "Inhibitory rate on an increase in lipid peroxide", "setting": "final concentration 1.0%", "result": 96, "unit": "%"}, {"measurement": "Effect on oxidation at low concentration (in words)", "setting": "low concentration range of 0.01%", "result": "oxidation may be accelerated"}]}
